Test results published in patent US10717734B2, “Indole and azaindole haloallylamine derivative inhibitors of lysyl oxidases and uses thereof” (PHARMAXIS LTD., priority 2016, dated 2020).
Structures can show the parent of a compound that is named as a salt.

How the values were obtained:
Assay type in all cases: biochemical
[1] = molecular target: Human recombinant SSAO/VAP-1 (Homo sapiens (Human), UniProt Q16853); assay: Human recombinant SSAO/VAP-1 amine oxidase inhibition; conditions: 30 min preincubation at 37° C., 600 μM benzylamine
Human recombinant SSAO/VAP-1, sequence (Q16853 34-763): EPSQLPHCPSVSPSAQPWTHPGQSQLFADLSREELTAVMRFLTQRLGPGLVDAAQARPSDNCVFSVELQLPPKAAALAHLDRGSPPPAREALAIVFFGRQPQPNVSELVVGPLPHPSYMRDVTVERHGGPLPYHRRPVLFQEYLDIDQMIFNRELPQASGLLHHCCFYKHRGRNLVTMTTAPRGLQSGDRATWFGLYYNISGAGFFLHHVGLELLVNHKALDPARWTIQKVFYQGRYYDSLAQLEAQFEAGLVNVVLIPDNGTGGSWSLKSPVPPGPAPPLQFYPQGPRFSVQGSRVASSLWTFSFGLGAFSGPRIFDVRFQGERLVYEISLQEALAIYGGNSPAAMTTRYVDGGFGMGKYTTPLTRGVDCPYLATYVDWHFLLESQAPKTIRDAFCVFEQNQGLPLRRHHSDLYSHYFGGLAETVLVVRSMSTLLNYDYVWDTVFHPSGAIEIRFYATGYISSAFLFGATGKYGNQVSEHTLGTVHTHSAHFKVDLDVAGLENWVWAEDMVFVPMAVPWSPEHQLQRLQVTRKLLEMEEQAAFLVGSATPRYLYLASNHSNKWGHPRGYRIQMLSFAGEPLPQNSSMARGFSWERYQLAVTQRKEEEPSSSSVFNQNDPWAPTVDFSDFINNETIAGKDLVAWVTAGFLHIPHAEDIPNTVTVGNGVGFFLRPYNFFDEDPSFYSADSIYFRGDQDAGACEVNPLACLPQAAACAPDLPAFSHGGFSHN
Method: Method to Determine the Ability of Compounds of Formula I to Inhibit Human Recombinant SSAO/VAP-1
Human recombinant SSAO/VAP-1 amine oxidase activity was determined using the coupled colorimetric method as described for monoamine oxidase, copper-containing amine oxidases and related enzymes (Holt A. and Palcic M., A peroxidase-coupled continuous absorbance plate-reader assay for flavin monoamine oxidases, copper-containing amine oxidases and related enzymes. Nat Protoc 2006; 1: 2498-2505). Briefly, a cloned cDNA template corresponding to residues 34-763 of human SSAO/VAP-1, and incorporating a mouse Ig kappa (κ) signal sequence, N-terminal flag epitope tag and tobacco etch virus (TEV) cleavage site, was assembled in a mammalian expression vector (pLO-CMV) by Geneart AG. This vector containing human SSAO/VAP-1 residues was transfected into CHO-K1 glycosylation mutant cell line, Lec 8. A clone stably expressing human SSAO/VAP-1 was isolated and cultured in large scale. Active human SSAO/VAP-1 was purified and recovered using immunoaffinity chromatography. This was used as the source for SSAO/VAP-1 activity. A high-throughput colorimetric assay was developed using either 96 or 384 well format. Briefly, in a standard 96 well plate assay 50 μL of purified human SSAO/VAP-1 (0.25 μg/mL) in 0.1 M sodium phosphate buffer (pH 7.4) was added into each well. Test compounds were dissolved in DMSO and tested in a Concentration Response Curve (CRC) with 4-11 data points, typically in the micromolar or nanomolar range after incubation with human SSAO/VAP-1 for 30 min at 37° C. After 30 min incubation, 50 μL of the reaction mixture containing 600 μM benzylamine (Sigma Aldrich), 120 μM Amplex Red (Sigma Aldrich) and 1.5 U/mL horseradish peroxidase (Sigma Aldrich) prepared in 0.1 M sodium phosphate buffer (pH 7.4) were added to the corresponding well. The fluorescence unit (RFU) was read every 2.5 min for 30 min at 37° C. excitation 565 nm and emission 590 (Optima; BMG labtech). The slope of the kinetics for each well was calculated using MARS data analysis software (BMG labtech) and this value was used to deduce the IC50 value (Dotmatics).

[2] = molecular target: Bovine LOX (Bos taurus (Bovine), UniProt P33072); assay: LOX inhibition, peroxidase-coupled Amplex Red amine oxidase assay; conditions: 30 min preincubation at 37° C., putrescine substrate
Bovine LOX, sequence (P33072 170-418): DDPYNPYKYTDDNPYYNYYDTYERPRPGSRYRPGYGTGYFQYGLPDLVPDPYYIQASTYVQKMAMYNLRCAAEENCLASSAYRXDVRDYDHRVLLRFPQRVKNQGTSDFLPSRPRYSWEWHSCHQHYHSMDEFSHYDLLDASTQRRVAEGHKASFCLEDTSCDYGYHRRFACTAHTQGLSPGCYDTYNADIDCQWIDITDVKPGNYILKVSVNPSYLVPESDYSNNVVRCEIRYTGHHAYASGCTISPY
Source text: (§1) Method to Determine the Ability of Compounds of the Invention to Inhibit LOX and LOXL1-4 from Different Sources
Lysyl oxidase (LOX) is an extracellular copper dependent enzyme which oxidizes peptidyl lysine and hydroxylysine residues in collagen and lysine residues in elastin to produce peptidyl alpha-aminoadipic-delta-semialdehydes. […] There are five LOX family members; these are LOX, LOXL1, LOXL2, LOXL3 and LOXL4. LOX and LOXL family members can be acquired as recombinant active proteins from commercial sources, or extracted from animal tissues like bovine aorta, tendons, pig skin; or prepared from cell cultures. The inhibitory effects of the compounds of the present invention were tested against the given LOX-LOXL preparation using a high-throughput coupled colorimetric method (Holt A. and Palcic M., A peroxidase-coupled continuous absorbance plate-reader assay for flavin monoamine oxidases, copper-containing amine oxidases and related enzymes. Nat. Protoc. 2006; 1: 2498-2505). The assay was developed using either 384 or 96 well format. Briefly, in a standard 384 well plate assay 25 μL of a dilution of any of the isoenzymes and orthologues in 1.2 M urea, 50 mM sodium borate buffer (pH 8.2) were added into each well in the presence of 1 μM mofegiline and 0.5 mM pargyline (to inhibit SSAO and MAO-B and MAO-A, respectively). […] Twenty five μL of a reaction mixture containing twice the KM concentration of putrescine (Sigma Aldrich, e.g. 20 mM for LOX, or 10 mM for LOXL2 and LOXL3), 120 μM Amplex Red (Sigma Aldrich) and 1.5 U/mL horseradish peroxidase (Sigma Aldrich) prepared in 1.2 M urea, 50 mM sodium borate buffer (pH 8.2) were then added to the corresponding wells. The above volumes were doubled in the case of 96 wells plate. The fluorescence (RFU) was read every 2.5 min for 30 min at a range of temperatures from 37° to 45° C., excitation 565 nm and emission 590 (Optima; BMG labtech). The slope of the kinetics for each well was calculated using MARS data analysis software (BMG labtech) and this value was used to deduce the IC50 value (Dotmatics).

[3] = molecular target: Human LOXL2 (Homo sapiens (Human), UniProt Q9Y4K0); assay: LOXL2 inhibition, peroxidase-coupled Amplex Red amine oxidase assay; conditions: 30 min preincubation at 37° C., putrescine substrate
Human LOXL2, sequence (Q9Y4K0 26-774): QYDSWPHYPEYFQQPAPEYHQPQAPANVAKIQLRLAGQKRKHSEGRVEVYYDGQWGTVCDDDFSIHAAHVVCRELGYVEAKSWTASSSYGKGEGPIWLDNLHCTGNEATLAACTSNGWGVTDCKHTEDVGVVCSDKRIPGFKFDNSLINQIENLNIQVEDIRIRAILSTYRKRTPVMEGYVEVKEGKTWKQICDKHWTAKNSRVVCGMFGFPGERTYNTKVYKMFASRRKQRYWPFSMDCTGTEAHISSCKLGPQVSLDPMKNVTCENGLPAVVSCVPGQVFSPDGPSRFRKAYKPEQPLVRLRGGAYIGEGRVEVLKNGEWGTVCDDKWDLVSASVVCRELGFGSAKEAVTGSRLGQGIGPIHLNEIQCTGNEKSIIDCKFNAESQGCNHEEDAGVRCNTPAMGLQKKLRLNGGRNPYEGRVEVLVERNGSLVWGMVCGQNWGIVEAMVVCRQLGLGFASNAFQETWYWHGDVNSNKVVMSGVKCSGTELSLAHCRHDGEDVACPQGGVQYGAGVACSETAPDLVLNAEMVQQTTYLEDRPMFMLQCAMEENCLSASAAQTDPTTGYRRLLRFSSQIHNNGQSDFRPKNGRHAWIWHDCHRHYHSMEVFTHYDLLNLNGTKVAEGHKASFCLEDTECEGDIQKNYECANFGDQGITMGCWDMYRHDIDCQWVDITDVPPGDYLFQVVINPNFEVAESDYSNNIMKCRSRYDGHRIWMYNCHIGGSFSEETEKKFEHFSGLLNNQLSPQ
Source text: as §1
Lysyl oxidase (LOX) is an extracellular copper dependent enzyme which oxidizes peptidyl lysine and hydroxylysine residues in collagen and lysine residues in elastin to produce peptidyl alpha-aminoadipic-delta-semialdehydes. […] There are five LOX family members; these are LOX, LOXL1, LOXL2, LOXL3 and LOXL4. LOX and LOXL family members can be acquired as recombinant active proteins from commercial sources, or extracted from animal tissues like bovine aorta, tendons, pig skin; or prepared from cell cultures. The inhibitory effects of the compounds of the present invention were tested against the given LOX-LOXL preparation using a high-throughput coupled colorimetric method (Holt A. and Palcic M., A peroxidase-coupled continuous absorbance plate-reader assay for flavin monoamine oxidases, copper-containing amine oxidases and related enzymes. Nat. Protoc. 2006; 1: 2498-2505). The assay was developed using either 384 or 96 well format. Briefly, in a standard 384 well plate assay 25 μL of a dilution of any of the isoenzymes and orthologues in 1.2 M urea, 50 mM sodium borate buffer (pH 8.2) were added into each well in the presence of 1 μM mofegiline and 0.5 mM pargyline (to inhibit SSAO and MAO-B and MAO-A, respectively). Test compounds were dissolved in DMSO and tested in a Concentration Response Curve (CRC) with 11 data points, typically in the micromolar or nanomolar range after incubation with the enzyme for 30 min at 37° C. Twenty five μL of a reaction mixture containing twice the KM concentration of putrescine (Sigma Aldrich, e.g. 20 mM for LOX, or 10 mM for LOXL2 and LOXL3), 120 μM Amplex Red (Sigma Aldrich) and 1.5 U/mL horseradish peroxidase (Sigma Aldrich) prepared in 1.2 M urea, 50 mM sodium borate buffer (pH 8.2) were then added to the corresponding wells. The above volumes were doubled in the case of 96 wells plate. The fluorescence (RFU) was read every 2.5 min for 30 min at a range of temperatures from 37° to 45° C., excitation 565 nm and emission 590 (Optima; BMG labtech). The slope of the kinetics for each well was calculated using MARS data analysis software (BMG labtech) and this value was used to deduce the IC50 value (Dotmatics).

[4] = molecular target: Recombinant human MAO-B (Homo sapiens (Human), UniProt P27338); assay: Human recombinant MAO-B inhibition; conditions: benzylamine 100 μM
Recombinant human MAO-B, sequence (P27338 whole entry): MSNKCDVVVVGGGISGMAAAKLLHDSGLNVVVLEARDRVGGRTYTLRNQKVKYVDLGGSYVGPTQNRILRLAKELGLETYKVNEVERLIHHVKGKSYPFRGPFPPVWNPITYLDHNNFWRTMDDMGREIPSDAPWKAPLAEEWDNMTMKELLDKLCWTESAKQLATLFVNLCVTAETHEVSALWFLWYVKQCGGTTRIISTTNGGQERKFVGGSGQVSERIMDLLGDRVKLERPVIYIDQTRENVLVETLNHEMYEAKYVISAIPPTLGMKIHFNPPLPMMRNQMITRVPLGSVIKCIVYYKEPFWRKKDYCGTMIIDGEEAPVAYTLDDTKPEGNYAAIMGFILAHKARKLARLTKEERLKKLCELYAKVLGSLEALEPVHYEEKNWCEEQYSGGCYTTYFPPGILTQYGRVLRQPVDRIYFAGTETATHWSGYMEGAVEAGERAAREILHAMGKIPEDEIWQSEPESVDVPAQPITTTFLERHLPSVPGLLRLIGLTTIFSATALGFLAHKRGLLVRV
Method: Method to Determine the Ability of Compounds of Formula I to Inhibit Human Recombinant MAO-B
The specificity of the compounds of this invention was tested by determining their ability to inhibit MAO-B activities in vitro. Recombinant human MAO-B (0.06 mg/mL; Sigma Aldrich) was used as source of MAO-B enzyme activities. The assay was performed in a similar way as for human SSAO/VAP-1 (Example 36) except, the substrate benzylamine was used at 100 μM.

In the case of Cc1c(Cc2ccc(S(=O)(=O)N(C)C)cc2)c2ccccc2n1C/C(F)=C/CN [Compound 26, (Z)-4-((1-(4-amino-2-fluorobut-2-en-1-yl)-2-methyl-1H-indol-3-yl)methyl)-N,N-dimethylbenzene-sulfonamide hydrochloride], the IC50 [1] is reported as > 3000 nM, the IC50 [2] is reported as > 300 nM and the IC50 [3] is reported as < 300 nM. For the same molecule, the IC50 [4] was > 3000 nM.
With Cc1ccc2c(n1)c(Cc1cccc(S(C)(=O)=O)c1)c(C)n2C/C(F)=C/CN [Compound 17, (Z)-4-(2,5-dimethyl-3-(3-(methylsulfonyl)benzyl)-1H-pyrrolo[3,2-b]pyridin-1-yl)-3-fluorobut-2-en-1-amine dihydrochloride] the IC50 [1] was > 3000 nM, the IC50 [2] was > 300 nM and the IC50 [3] was < 300 nM. For the same molecule, the IC50 [4] was > 3000 nM.
With Cc1ccc2c(n1)c(Cc1ccc(S(=O)(=O)N(C)C)cc1)c(C)n2C/C(F)=C/CN [Compound 9, (Z)-4-((1-(4-amino-2-fluorobut-2-en-1-yl)-2,5-dimethyl-1H-pyrrolo[3,2-b]pyridin-3-yl)methyl)-N,N-dimethylbenzenesulfonamide dihydrochloride] the IC50 [1] was > 3000 nM, the IC50 [2] was > 300 nM and the IC50 [3] was < 300 nM. The IC50 [4] was > 3000 nM.
Cc1c(Cc2ccc(S(C)(=O)=O)cc2Cl)c2ncccc2n1C/C(F)=C/CN [Compound 20, (Z)-4-(3-(2-chloro-4-(methylsulfonyl)benzyl)-2-methyl-1H-pyrrolo[3,2-b]pyridin-1-yl)-3-fluorobut-2-en-1-amine dihydrochloride] was tested, and the IC50 [1] was > 3000 nM, the IC50 [2] was > 300 nM and the IC50 [3] was < 300 nM. The IC50 [4] was > 3000 nM.
For CC(C)c1c(Cc2ccc(S(C)(=O)=O)cc2)c2ncccc2n1C/C(F)=C/CN [Compound 33, (Z)-3-fluoro-4-(2-isopropyl-3-(4-(methylsulfonyl)benzyl)-1H-pyrrolo[3,2-b]pyridin-1-yl)but-2-en-1-amine dihydrochloride], the IC50 [1] was > 3000 nM, the IC50 [2] was > 300 nM and the IC50 [3] was < 300 nM. The IC50 [4] was > 3000 nM.
Cc1c(Cc2ccc(S(C)(=O)=O)cc2)c2ncccc2n1C/C(F)=C/CN [Compound 10, (Z)-3-fluoro-4-(2-methyl-3-(4-(methylsulfonyl)benzyl)-1H-pyrrolo[3,2-b]pyridin-1-yl)but-2-en-1-amine dihydrochloride] was tested, and the IC50 [1] was > 3000 nM, the IC50 [2] was > 300 nM and the IC50 [3] was < 300 nM. The IC50 [4] was > 3000 nM.
Cc1c(Cc2ccc(S(C)(=O)=O)nc2)c2nc(C(C)(F)F)ccc2n1C/C(F)=C/CN [Compound 30, (Z)-4-(5-(1,1-difluoroethyl)-2-methyl-3-((6-(methylsulfonyl)pyridin-3-yl)methyl)-1H-pyrrolo[3,2-b]pyridin-1-yl)-3-fluorobut-2-en-1-amine trihydrochloride] was tested, and the IC50 [1] was > 3000 nM, the IC50 [2] was > 300 nM and the IC50 [3] was < 300 nM. For the same molecule, the IC50 [4] was > 3000 nM.
For Cc1c(Cc2ccc(S(=O)(=O)N(C)C)cc2)c2cc(C(=O)N(C)C)ccc2n1C/C(F)=C/CN [Compound 3, (Z)-1-(4-amino-2-fluorobut-2-en-1-yl)-3-(4-(N,N-dimethylsulfamoyl)benzyl)-N,N,2-trimethyl-1H-indole-5-carboxamide hydrochloride], the IC50 [1] was > 3000 nM, the IC50 [2] was > 300 nM and the IC50 [3] was < 300 nM. The IC50 [4] was > 3000 nM.
With Cc1c(Cc2ccc(S(=O)(=O)N(C)C)cc2)c2cnccc2n1C/C(F)=C/CN [Compound 32, (Z)-4-((1-(4-amino-2-fluorobut-2-en-1-yl)-2-methyl-1H-pyrrolo[3,2-c]pyridin-3-yl)methyl)-N,N-dimethylbenzenesulfonamide dihydrochloride] the IC50 [1] was > 3000 nM, the IC50 [2] was > 300 nM and the IC50 [3] was < 300 nM. The IC50 [4] was > 3000 nM.
With Cc1ncc2c(n1)c(Cc1ccc(S(C)(=O)=O)cc1)c(C)n2C/C(F)=C/CN [Compound 38, (Z)-4-(2,6-dimethyl-7-(4-(methylsulfonyl)benzyl)-5H-pyrrolo[3,2-d]pyrimidin-5-yl)-3-fluorobut-2-en-1-amine dihydrochloride] the IC50 [1] was > 3000 nM, the IC50 [2] was > 300 nM and the IC50 [3] was < 300 nM. For the same molecule, the IC50 [4] was > 3000 nM.
With Cc1cc(S(C)(=O)=O)ccc1Cc1c(C)n(C/C(F)=C/CN)c2cccnc12 [Compound 34, (Z)-3-fluoro-4-(2-methyl-3-(2-methyl-4-(methylsulfonyl)benzyl)-1H-pyrrolo[3,2-b]pyridin-1-yl)but-2-en-1-amine dihydrochloride] the IC50 [1] was > 3000 nM, the IC50 [2] was > 300 nM and the IC50 [3] was < 300 nM. For the same molecule, the IC50 [4] was > 3000 nM.
With CN(C)C(=O)c1c(Cc2ccc(S(=O)(=O)N(C)C)cc2)c2ccccc2n1C/C(F)=C/CN [Compound 5, (Z)-1-(4-amino-2-fluorobut-2-en-1-yl)-3-(4-(N,N-dimethylsulfamoyl)benzyl)-N,N-dimethyl-1H-indole-2-carboxamide hydrochloride] the IC50 [1] was > 3000 nM, the IC50 [2] was > 300 nM and the IC50 [3] was < 300 nM. For the same molecule, the IC50 [4] was > 3000 nM.
For CN(C)S(=O)(=O)c1ccc(Cc2c(C(C)(C)O)n(C/C(F)=C/CN)c3cccnc23)cc1 [Compound 25, (Z)-4-((1-(4-amino-2-fluorobut-2-en-1-yl)-2-(2-hydroxypropan-2-yl)-1H-pyrrolo[3,2-b]pyridin-3-yl)methyl)-N,N-dimethylbenzenesulfonamide dihydrochloride], the IC50 [1] was > 3000 nM, the IC50 [2] was > 300 nM and the IC50 [3] was < 300 nM. The IC50 [4] was > 3000 nM.
